Consider ten compounds from ChEMBL document CHEMBL3526137, “Comparison of cryopreserved HepaRG cells with cryopreserved human hepatocytes for prediction of clearance for 26 drugs” (Drug Metab Dispos, 2012).

A short description of series [1]: in vitro. The conditions noted are these: human.
Description: Intrinsic clearance in cryopreserved human HepaRG cells assessed per 10^6 cells by LC-MS/MS method
A short description of series [2]: physchem. The conditions noted are these: octanol/water.
Description: Lipophilicity, log P of the compound
A short description of series [3]: in vitro. The conditions noted are these: blood.
For another series, the species on record is Homo sapiens. Conditions: in vivo.
Series [4] in a line: in vitro. The conditions noted are these: human. This is another data set of the same source.
Series [5] can be described thus: in vitro. The conditions noted are these: human. The source holds these as a separate data set.
Series [6] in a line: in vitro. Conditions: human, hepatocytes.
Description: (§1) Intrinsic clearance in human using well stirred liver model by LC-MS/MS method
The next series concerns Hepatocyte. Conditions: human, hepatocytes.
Series [7] is described as follows: physchem.
Description: Dissociation constant, pKa of the compound
The conditions of series [8]: human, hepatocytes.
Description: as §1
The conditions of series [9]: octanol/water.
Description: Lipophilicity, log P of the compound

Description for Homo sapiens: Hepatic clearance in human

On to `C=CCc1ccccc1OCC(O)CNC(C)C` (configuration not stated) [ALPRENOLOL], for which the results for the hepatocyte CLint in “in vitro [1]” (cryopreserved HepaRG cells) and in “in vitro [5]” (cryopreserved hepatocytes) were 25.1 µL/min/1e6 cells and 49.3 µL/min/1e6 cells, respectively. The logP (in general, a log measure of how a compound divides between an organic and an aqueous phase) in the series “physchem [2]” is 3.12. Moreover, the fraction unbound (usually free concentration divided by total concentration) in the series “in vitro [3]” turned out to be 0.27; in “in vitro [4]” (human hepatocytes), 0.933. Besides, the CLH in the series filed under Homo sapiens worked out at 12.5 mL/min/kg. Further, in the series “in vitro [6]”, the CLint scaled – broadly, the rate of metabolic loss divided by the concentration – amounted to 117 mL/min/kg.

Regarding `Cc1cc(=O)n(-c2ccccc2)n1C` [ANTIPYRINE], the results for the CLH in the series with Hepatocyte and in the series listed under Homo sapiens were 0.083 uL/min/10^6cells and 0.57 mL/min/kg, respectively. In addition, the fraction unbound in the series “in vitro [3]” came out at 0.97; in the series “in vitro [4]” (human hepatocytes) it was 0.988. Moreover, the intrinsic metabolic clearance (CLint scaled) in “in vitro [6]” came to 0.604 mL/min/kg.

In the case of `CCc1cccc2cc(C(O)CNC(C)(C)C)oc12` (configuration not stated) [BUFURALOL], the results for the hepatocyte CLint in the series “in vitro [1]” (heparg) and in the series “in vitro [5]” (hepatocytes) were 88 µL/min/1e6 cells and 51.3 µL/min/1e6 cells, respectively. Besides, the logP in the series “physchem [2]” amounted to 2.7. For the same compound, the fraction unbound in “in vitro [3]” came to 0.24; in “in vitro [4]” (hepatocytes) it was 0.97. Also, the CLH in the series filed under Homo sapiens was found to be 8.8 mL/min/kg. Moreover, the pKa (as a rule, the negative logarithm of the acid dissociation constant) in “physchem [7]” came out at 8.9. The compound also showed a CLint scaled in the series “in vitro [6]” of 63.8 mL/min/kg.

On to `CN(C)CCCN1c2ccccc2Sc2ccc(Cl)cc21` [CHLORPROMAZINE], for which the results for the hepatocyte CLint in “in vitro [1]” (heparg) and in the series “in vitro [5]” (hepatocytes) were 252 µL/min/1e6 cells and 82.5 µL/min/1e6 cells, respectively. For the same compound, the CL in series [8] was 278 mL/min/kg. The values for the fraction unbound in “in vitro [3]” and in “in vitro [4]” (hepatocytes) were 0.053 and 0.302, respectively. For the same compound, the CLH in the series listed under Homo sapiens was 8.6 mL/min/kg.

For the compound `CC(C(=O)O)c1cccc(Oc2ccccc2)c1` (configuration not stated) [FENOPROFEN], the hepatocyte CLint (in general, the rate of metabolic loss divided by the concentration) in the series “in vitro [1]” (cryopreserved HepaRG cells) turned out to be 5.31 µL/min/1e6 cells; in the series “in vitro [5]” (cryopreserved hepatocytes), 8.5 µL/min/1e6 cells. Further, the logP in “physchem [2]” turned out to be 0.8. Besides, the fraction unbound in “in vitro [3]” is 0.018; in “in vitro [4]” (human hepatocytes), 0.984. In the series filed under Homo sapiens, this compound registered a CLH of 0.6 mL/min/kg.

`OCCN1CCN(CCCN2c3ccccc3Sc3ccc(C(F)(F)F)cc32)CC1` [FLUPHENAZINE]: the hepatocyte CLint was 71.6 µL/min/1e6 cells in the series “in vitro [1]” (cryopreserved HepaRG cells) and 121 µL/min/1e6 cells in “in vitro [5]” (cryopreserved hepatocytes). In addition, in the series “physchem [2]”, the logP was 4.58. The fraction unbound in the series “in vitro [3]” worked out at 0.012; in “in vitro [4]” (hepatocytes), 0.455. The compound further had a CLH in the series listed under Homo sapiens of 9.9 mL/min/kg. Moreover, the pKa in the series “physchem [7]” stood at 4.2. This compound also came in with a CLint scaled in the series “in vitro [6]” of 1580 mL/min/kg.

Take `CC(CCc1ccccc1)NCC(O)c1ccc(O)c(C(N)=O)c1` (configuration not stated) [LABETALOL]: the results for the hepatocyte CLint in “in vitro [1]” (cryopreserved HepaRG cells) and in the series “in vitro [5]” (cryopreserved hepatocytes) were 7.47 µL/min/1e6 cells and 21.6 µL/min/1e6 cells, respectively. Further, the fraction unbound in “in vitro [3]” was 0.32; in the series “in vitro [4]” (human hepatocytes) it was 0.961. The compound further showed a CLH in the series listed under Homo sapiens of 18.1 mL/min/kg. In series [9], this compound registered a logP of 1.2. This compound had a CLint scaled in “in vitro [6]” of 450 mL/min/kg.

`COCCc1ccc(OCC(O)CNC(C)C)cc1` (configuration not stated) [METOPROLOL]: the hepatocyte CLint in “in vitro [1]” (cryopreserved HepaRG cells) was found to be 8.41 µL/min/1e6 cells; in “in vitro [5]” (cryopreserved hepatocytes) it was 13 µL/min/1e6 cells. This compound showed a logP in “physchem [2]” of 1.93. The compound further had a CLH in the series filed under Homo sapiens of 13.3 mL/min/kg. This compound also registered a fraction unbound in “in vitro [4]” (hepatocytes) of 0.974. Besides, in “in vitro [6]”, the CLint scaled was found to be 46.5 mL/min/kg.

Consider `C[C@]12C=CC(=O)C=C1CC[C@@H]1[C@@H]2[C@@H](O)C[C@@]2(C)[C@H]1CC[C@]2(O)C(=O)CO` [PREDNISOLONE], for which the hepatocyte CLint in “in vitro [1]” (cryopreserved HepaRG cells) was 8.49 µL/min/1e6 cells; in the series “in vitro [5]” (cryopreserved hepatocytes) it was 28.3 µL/min/1e6 cells. Further, the logP in “physchem [2]” worked out at 1.5. For the same compound, the fraction unbound in the series “in vitro [3]” came out at 0.1; in “in vitro [4]” (human hepatocytes), 0.98. In the series filed under Homo sapiens, the CLH stood at 2.4 mL/min/kg. This compound also showed a CLint scaled in the series “in vitro [6]” of 27.1 mL/min/kg.

Consider `CN(C)CCCN1c2ccccc2Sc2ccccc21` [PROMAZINE], for which the hepatocyte CLint came to 51.6 µL/min/1e6 cells in “in vitro [1]” (cryopreserved HepaRG cells) and 30.9 µL/min/1e6 cells in the series “in vitro [5]” (cryopreserved hepatocytes). The same compound registered a log partition coefficient (logP) in “physchem [2]” of 4.59. The figures for the fraction unbound in the series “in vitro [3]” and in the series “in vitro [4]” (human hepatocytes) were 0.029 and 0.545, respectively. This compound also registered a CLH in the series filed under Homo sapiens of 14.3 mL/min/kg. In “in vitro [6]”, this compound had a CLint scaled of 1600 mL/min/kg.
